Experiments:
NCI-H322M = experiment: NCI-60 one-dose SRB screen (Non-Small Cell Lung Cancer); type: cell-based; conditions: Homo sapiens, single dose 10 µM, 48 h, read-out: Growth inhibition percent (GI %)
NCI-H522 = experiment: as above; type: cell-based; conditions: Homo sapiens, single dose 10 µM, 48 h, read-out: Growth inhibition percent (GI %)
HOP-92 = experiment: as above; type: cell-based; conditions: Homo sapiens, single dose 10 µM, 48 h, read-out: Growth inhibition percent (GI %)
NCI-H23 = experiment: as above; type: cell-based; conditions: Homo sapiens, single dose 10 µM, 48 h, read-out: Growth inhibition percent (GI %)
EKVX = experiment: as above; type: cell-based; conditions: Homo sapiens, single dose 10 µM, 48 h, read-out: Growth inhibition percent (GI %)
A549/ATCC = experiment: as above; type: cell-based; conditions: Homo sapiens, single dose 10 µM, 48 h, read-out: Growth inhibition percent (GI %)
HOP-62 = experiment: as above; type: cell-based; conditions: Homo sapiens, single dose 10 µM, 48 h, read-out: Growth inhibition percent (GI %)
NCI-H460 = experiment: as above; type: cell-based; conditions: Homo sapiens, single dose 10 µM, 48 h, read-out: Growth inhibition percent (GI %)
NCI-H226 = experiment: as above; type: cell-based; conditions: Homo sapiens, single dose 10 µM, 48 h, read-out: Growth inhibition percent (GI %)
SF-539 = experiment: NCI-60 one-dose SRB screen (CNS Cancer); type: cell-based; conditions: Homo sapiens, single dose 10 µM, 48 h, read-out: Growth inhibition percent (GI %)
SNB-19 = experiment: NCI-60 one-dose SRB screen (CNS Cancer); type: cell-based; conditions: Homo sapiens, single dose 10 µM, 48 h, read-out: Growth inhibition percent (GI %)
U251 = experiment: NCI-60 one-dose SRB screen (CNS Cancer); type: cell-based; conditions: Homo sapiens, U-251, single dose 10 µM, 48 h, read-out: Growth inhibition percent (GI %)
SF-268 = experiment: NCI-60 one-dose SRB screen (CNS Cancer); type: cell-based; conditions: Homo sapiens, single dose 10 µM, 48 h, read-out: Growth inhibition percent (GI %)
SF-295 = experiment: NCI-60 one-dose SRB screen (CNS Cancer); type: cell-based; conditions: Homo sapiens, single dose 10 µM, 48 h, read-out: Growth inhibition percent (GI %)
SNB-75 = experiment: NCI-60 one-dose SRB screen (CNS Cancer); type: cell-based; conditions: Homo sapiens, single dose 10 µM, 48 h, read-out: Growth inhibition percent (GI %)
HL-60(TB) = experiment: NCI-60 one-dose SRB screen (Leukemia); type: cell-based; conditions: Homo sapiens, single dose 10 µM, 48 h, read-out: Growth inhibition percent (GI %)
SR = experiment: NCI-60 one-dose SRB screen (Leukemia); type: cell-based; conditions: Homo sapiens, single dose 10 µM, 48 h, read-out: Growth inhibition percent (GI %)
K-562 = experiment: NCI-60 one-dose SRB screen (Leukemia); type: cell-based; conditions: Homo sapiens, K562, single dose 10 µM, 48 h, read-out: Growth inhibition percent (GI %)
MOLT-4 = experiment: NCI-60 one-dose SRB screen (Leukemia); type: cell-based; conditions: Homo sapiens, single dose 10 µM, 48 h, read-out: Growth inhibition percent (GI %)
RPMI-8226 = experiment: NCI-60 one-dose SRB screen (Leukemia); type: cell-based; conditions: Homo sapiens, single dose 10 µM, 48 h, read-out: Growth inhibition percent (GI %)
CCRF-CEM = experiment: NCI-60 one-dose SRB screen (Leukemia); type: cell-based; conditions: Homo sapiens, single dose 10 µM, 48 h, read-out: Growth inhibition percent (GI %)
UO-31 = experiment: NCI-60 one-dose SRB screen (Renal Cancer); type: cell-based; conditions: Homo sapiens, single dose 10 µM, 48 h, read-out: Growth inhibition percent (GI %)
TK-10 = experiment: NCI-60 one-dose SRB screen (Renal Cancer); type: cell-based; conditions: Homo sapiens, single dose 10 µM, 48 h, read-out: Growth inhibition percent (GI %)
ACHN = experiment: NCI-60 one-dose SRB screen (Renal Cancer); type: cell-based; conditions: Homo sapiens, single dose 10 µM, 48 h, read-out: Growth inhibition percent (GI %)
CAKI-1 = experiment: NCI-60 one-dose SRB screen (Renal Cancer); type: cell-based; conditions: Homo sapiens, single dose 10 µM, 48 h, read-out: Growth inhibition percent (GI %)
786-0 = experiment: NCI-60 one-dose SRB screen (Renal Cancer); type: cell-based; conditions: Homo sapiens, single dose 10 µM, 48 h, read-out: Growth inhibition percent (GI %)
A498 = experiment: NCI-60 one-dose SRB screen (Renal Cancer); type: cell-based; conditions: Homo sapiens, single dose 10 µM, 48 h, read-out: Growth inhibition percent (GI %)
RXF 393 = experiment: NCI-60 one-dose SRB screen (Renal Cancer); type: cell-based; conditions: Homo sapiens, single dose 10 µM, 48 h, read-out: Growth inhibition percent (GI %)
COLO 205 = experiment: NCI-60 one-dose SRB screen (Colon Cancer); type: cell-based; conditions: Homo sapiens, single dose 10 µM, 48 h, read-out: Growth inhibition percent (GI %)
HT29 = experiment: NCI-60 one-dose SRB screen (Colon Cancer); type: cell-based; conditions: Homo sapiens, HT-29, single dose 10 µM, 48 h, read-out: Growth inhibition percent (GI %)
HCC-2998 = experiment: NCI-60 one-dose SRB screen (Colon Cancer); type: cell-based; conditions: Homo sapiens, single dose 10 µM, 48 h, read-out: Growth inhibition percent (GI %)
HCT-116 = experiment: NCI-60 one-dose SRB screen (Colon Cancer); type: cell-based; conditions: Homo sapiens, single dose 10 µM, 48 h, read-out: Growth inhibition percent (GI %)
KM12 = experiment: NCI-60 one-dose SRB screen (Colon Cancer); type: cell-based; conditions: Homo sapiens, single dose 10 µM, 48 h, read-out: Growth inhibition percent (GI %)
HCT-15 = experiment: NCI-60 one-dose SRB screen (Colon Cancer); type: cell-based; conditions: Homo sapiens, single dose 10 µM, 48 h, read-out: Growth inhibition percent (GI %)
SW-620 = experiment: NCI-60 one-dose SRB screen (Colon Cancer); type: cell-based; conditions: Homo sapiens, single dose 10 µM, 48 h, read-out: Growth inhibition percent (GI %)
OVCAR-4 = experiment: NCI-60 one-dose SRB screen (Ovarian cancer); type: cell-based; conditions: Homo sapiens, single dose 10 µM, 48 h, read-out: Growth inhibition percent (GI %)
OVCAR-3 = experiment: NCI-60 one-dose SRB screen (Ovarian cancer); type: cell-based; conditions: Homo sapiens, single dose 10 µM, 48 h, read-out: Growth inhibition percent (GI %)
OVCAR-8 = experiment: NCI-60 one-dose SRB screen (Ovarian cancer); type: cell-based; conditions: Homo sapiens, single dose 10 µM, 48 h, read-out: Growth inhibition percent (GI %)
SK-OV-3 = experiment: NCI-60 one-dose SRB screen (Ovarian cancer); type: cell-based; conditions: Homo sapiens, single dose 10 µM, 48 h, read-out: Growth inhibition percent (GI %)
NCI/ADR-RES = experiment: NCI-60 one-dose SRB screen (Ovarian cancer); type: cell-based; conditions: Homo sapiens, single dose 10 µM, 48 h, read-out: Growth inhibition percent (GI %)
IGROV1 = experiment: NCI-60 one-dose SRB screen (Ovarian cancer); type: cell-based; conditions: Homo sapiens, IGROV-1, single dose 10 µM, 48 h, read-out: Growth inhibition percent (GI %)
OVCAR-5 = experiment: NCI-60 one-dose SRB screen (Ovarian cancer); type: cell-based; conditions: Homo sapiens, single dose 10 µM, 48 h, read-out: Growth inhibition percent (GI %)
DU-145 = experiment: NCI-60 one-dose SRB screen (Prostate Cancer); type: cell-based; conditions: Homo sapiens, single dose 10 µM, 48 h, read-out: Growth inhibition percent (GI %)
PC-3 = experiment: NCI-60 one-dose SRB screen (Prostate Cancer); type: cell-based; conditions: Homo sapiens, single dose 10 µM, 48 h, read-out: Growth inhibition percent (GI %)
MCF-7 = experiment: NCI-60 one-dose SRB screen (Breast Cancer); type: cell-based; conditions: Homo sapiens, MCF7, single dose 10 µM, 48 h, read-out: Growth inhibition percent (GI %)
MDA-MB-231/ATCC = experiment: NCI-60 one-dose SRB screen (Breast Cancer); type: cell-based; conditions: Homo sapiens, single dose 10 µM, 48 h, read-out: Growth inhibition percent (GI %)
T-47D = experiment: NCI-60 one-dose SRB screen (Breast Cancer); type: cell-based; conditions: Homo sapiens, T47D, single dose 10 µM, 48 h, read-out: Growth inhibition percent (GI %)
HS 578T = experiment: NCI-60 one-dose SRB screen (Breast Cancer); type: cell-based; conditions: Homo sapiens, single dose 10 µM, 48 h, read-out: Growth inhibition percent (GI %)
MDA-MB-468 = experiment: NCI-60 one-dose SRB screen (Breast Cancer); type: cell-based; conditions: Homo sapiens, single dose 10 µM, 48 h, read-out: Growth inhibition percent (GI %)
BT-549 = experiment: NCI-60 one-dose SRB screen (Breast Cancer); type: cell-based; conditions: Homo sapiens, single dose 10 µM, 48 h, read-out: Growth inhibition percent (GI %)
LOX IMVI = experiment: NCI-60 one-dose SRB screen (Melanoma); type: cell-based; conditions: Homo sapiens, single dose 10 µM, 48 h, read-out: Growth inhibition percent (GI %)
UACC-62 = experiment: NCI-60 one-dose SRB screen (Melanoma); type: cell-based; conditions: Homo sapiens, single dose 10 µM, 48 h, read-out: Growth inhibition percent (GI %)
SK-MEL-28 = experiment: NCI-60 one-dose SRB screen (Melanoma); type: cell-based; conditions: Homo sapiens, single dose 10 µM, 48 h, read-out: Growth inhibition percent (GI %)
UACC-257 = experiment: NCI-60 one-dose SRB screen (Melanoma); type: cell-based; conditions: Homo sapiens, single dose 10 µM, 48 h, read-out: Growth inhibition percent (GI %)
M14 = experiment: NCI-60 one-dose SRB screen (Melanoma); type: cell-based; conditions: Homo sapiens, single dose 10 µM, 48 h, read-out: Growth inhibition percent (GI %)
MDA-MB-435 = experiment: NCI-60 one-dose SRB screen (Melanoma); type: cell-based; conditions: Homo sapiens, single dose 10 µM, 48 h, read-out: Growth inhibition percent (GI %)
SK-MEL-2 = experiment: NCI-60 one-dose SRB screen (Melanoma); type: cell-based; conditions: Homo sapiens, single dose 10 µM, 48 h, read-out: Growth inhibition percent (GI %)
SK-MEL-5 = experiment: NCI-60 one-dose SRB screen (Melanoma); type: cell-based; conditions: Homo sapiens, single dose 10 µM, 48 h, read-out: Growth inhibition percent (GI %)
MALME-3M = experiment: NCI-60 one-dose SRB screen (Melanoma); type: cell-based; conditions: Homo sapiens, single dose 10 µM, 48 h, read-out: Growth inhibition percent (GI %)
hCA XII = hCA XII (Homo sapiens, UniProt O43570); experiment: CA inhibitory activity, spectrophotometric p-NPA assay; type: biochemical; conditions: p-NPA substrate, pH 7.5, 25 °C, triplicate; read-out: IC50 (µM) ± SD hCA XII
Chain of hCA XII (O43570 25-354): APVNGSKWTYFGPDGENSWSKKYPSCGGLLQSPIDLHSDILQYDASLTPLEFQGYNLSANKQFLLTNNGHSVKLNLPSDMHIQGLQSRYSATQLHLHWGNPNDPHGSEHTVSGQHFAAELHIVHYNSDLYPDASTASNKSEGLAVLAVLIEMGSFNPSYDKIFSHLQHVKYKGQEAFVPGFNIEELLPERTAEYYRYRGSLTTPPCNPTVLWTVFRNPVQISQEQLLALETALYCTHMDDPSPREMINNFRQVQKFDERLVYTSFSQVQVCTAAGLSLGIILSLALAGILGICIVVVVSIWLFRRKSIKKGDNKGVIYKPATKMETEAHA

COc1ccc(-c2nn(-c3ccc(S(N)(=O)=O)cc3)cc2C(=O)NNC(N)=S)cc1 [Compound 9c, 2-[3-(4-Methoxyphenyl)-1-(4-sulfamoylphenyl)-1H-pyrazole-4-carbonyl] hydrazine-1-carbothioamide]
inhibition at 10 µM (NCI-H322M): < 5%
inhibition at 10 µM (NCI-H522): 8.06%
inhibition at 10 µM (HOP-92): < 5%
inhibition at 10 µM (NCI-H23): < 5%
inhibition at 10 µM (EKVX): < 5%
inhibition at 10 µM (A549/ATCC): < 5%
inhibition at 10 µM (HOP-62): < 5%
inhibition at 10 µM (NCI-H460): < 5%
inhibition at 10 µM (NCI-H226): < 5%
inhibition at 10 µM (SF-539): < 5%
inhibition at 10 µM (SNB-19): < 5%
inhibition at 10 µM (U251): < 5%
inhibition at 10 µM (SF-268): < 5%
inhibition at 10 µM (SF-295): < 5%
inhibition at 10 µM (SNB-75): < 5%
inhibition at 10 µM (HL-60(TB)): < 5%
inhibition at 10 µM (SR): < 5%
inhibition at 10 µM (K-562): < 5%
inhibition at 10 µM (MOLT-4): < 5%
inhibition at 10 µM (RPMI-8226): < 5%
inhibition at 10 µM (CCRF-CEM): < 5%
inhibition at 10 µM (UO-31): < 5%
inhibition at 10 µM (TK-10): < 5%
inhibition at 10 µM (ACHN): < 5%
inhibition at 10 µM (CAKI-1): < 5%
inhibition at 10 µM (786-0): < 5%
inhibition at 10 µM (A498): < 5%
inhibition at 10 µM (RXF 393): < 5%
inhibition at 10 µM (COLO 205): < 5%
inhibition at 10 µM (HT29): < 5%
inhibition at 10 µM (HCC-2998): < 5%
inhibition at 10 µM (HCT-116): < 5%
inhibition at 10 µM (KM12): < 5%
inhibition at 10 µM (HCT-15): < 5%
inhibition at 10 µM (SW-620): < 5%
melting point: 205 to 207 °C
inhibition at 10 µM (OVCAR-4): < 5%
inhibition at 10 µM (OVCAR-3): < 5%
inhibition at 10 µM (OVCAR-8): < 5%
inhibition at 10 µM (SK-OV-3): < 5%
inhibition at 10 µM (NCI/ADR-RES): < 5%
inhibition at 10 µM (IGROV1): < 5%
inhibition at 10 µM (OVCAR-5): < 5%
inhibition at 10 µM (DU-145): < 5%
inhibition at 10 µM (PC-3): < 5%
inhibition at 10 µM (MCF-7): < 5%
inhibition at 10 µM (MDA-MB-231/ATCC): < 5%
inhibition at 10 µM (T-47D): < 5%
inhibition at 10 µM (HS 578T): < 5%
inhibition at 10 µM (MDA-MB-468): < 5%
inhibition at 10 µM (BT-549): < 5%
inhibition at 10 µM (LOX IMVI): < 5%
inhibition at 10 µM (UACC-62): 8.41%
inhibition at 10 µM (SK-MEL-28): < 5%
inhibition at 10 µM (UACC-257): < 5%
inhibition at 10 µM (M14): < 5%
inhibition at 10 µM (MDA-MB-435): < 5%
inhibition at 10 µM (SK-MEL-2): < 5%
inhibition at 10 µM (SK-MEL-5): < 5%
inhibition at 10 µM (MALME-3M): < 5%
IC50 (hCA XII): 0.168 ± 0.006 µM

Reference: PMC12454493, “Insight on novel sulfamoylphenyl pyrazole derivatives as anticancer carbonic anhydrase inhibitors” (Molecular Diversity, 2024)
